Test results as given in ChEMBL document CHEMBL4425093, “Picrasidine N Is a Subtype-Selective PPARβ/δ Agonist” (J Nat Prod, 2016).
The source made the active and inactive calls. The calls are words filed in the database; no cut-off is given here.

Assays:
[1] = molecular target: T1, Peroxisome proliferator-activated receptor delta (Homo sapiens) (UniProt Q03181); assay: Agonist activity at GAL4-DBD fused human PPARbeta/delta-LBD (136 to 441 residues) expressed in human HepG2 cells at 10 uM by luciferase reporter gene based mammalian one hybrid assay; assay type: cell-based
T1 sequence (whole entry): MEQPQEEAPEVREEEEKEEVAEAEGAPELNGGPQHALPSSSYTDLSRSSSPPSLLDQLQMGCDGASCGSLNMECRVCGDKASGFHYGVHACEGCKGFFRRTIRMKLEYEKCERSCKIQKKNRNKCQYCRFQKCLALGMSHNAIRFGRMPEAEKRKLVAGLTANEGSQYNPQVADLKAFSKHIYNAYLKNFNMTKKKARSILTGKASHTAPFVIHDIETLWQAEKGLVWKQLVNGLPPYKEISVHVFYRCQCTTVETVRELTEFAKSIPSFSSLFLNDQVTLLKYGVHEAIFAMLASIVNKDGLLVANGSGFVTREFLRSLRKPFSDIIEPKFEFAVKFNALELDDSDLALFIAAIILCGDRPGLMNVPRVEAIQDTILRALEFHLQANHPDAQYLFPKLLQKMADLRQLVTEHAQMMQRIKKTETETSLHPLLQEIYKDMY

[2] = molecular target: T2, Peroxisome proliferator-activated receptor alpha (Homo sapiens) (UniProt Q07869); assay: Agonist activity at GAL4-DBD fused human PPARalpha-LBD (159 to 468 residues) expressed in human HepG2 cells at 0.1 to 20 uM after 24 hrs by dual luciferase reporter gene assay; assay type: cell-based
T2 sequence (whole entry): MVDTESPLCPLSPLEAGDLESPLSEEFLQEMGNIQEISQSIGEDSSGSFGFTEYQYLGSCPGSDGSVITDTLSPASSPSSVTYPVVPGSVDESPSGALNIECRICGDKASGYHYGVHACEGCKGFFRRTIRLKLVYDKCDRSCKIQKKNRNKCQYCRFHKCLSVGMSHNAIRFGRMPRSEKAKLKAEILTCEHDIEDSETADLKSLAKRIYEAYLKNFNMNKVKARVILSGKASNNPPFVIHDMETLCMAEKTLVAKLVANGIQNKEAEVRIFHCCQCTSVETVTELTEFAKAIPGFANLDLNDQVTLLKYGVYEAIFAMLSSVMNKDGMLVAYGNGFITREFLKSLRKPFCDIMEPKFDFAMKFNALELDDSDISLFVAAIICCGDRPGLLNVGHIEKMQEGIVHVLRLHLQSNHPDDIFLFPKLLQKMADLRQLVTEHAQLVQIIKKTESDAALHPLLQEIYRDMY

[3] = tested on: HepG2; assay: Induction of PPRE transcriptional activation in human HepG2 cells at 10 uM incubated for 24 hrs by dual luciferase reporter gene assay; assay type: functional, cell-based
[4] = molecular target: T1, Peroxisome proliferator-activated receptor delta (Homo sapiens); assay: Agonist activity PPARbeta/delta in human PC3 cells assessed as induction of ANGPTL4 mRNA expression at 10 uM incubated for 24 hrs by qRT-PCR method; assay type: cell-based
[5] = molecular target: T3, Peroxisome proliferator-activated receptor gamma (Homo sapiens) (UniProt P37231); assay: Agonist activity at GAL4-DBD fused human PPARgamma-LBD (157 to 475 residues) expressed in human HepG2 cells at 0.1 to 20 uM after 24 hrs by dual luciferase reporter gene assay; assay type: cell-based
T3 sequence (whole entry): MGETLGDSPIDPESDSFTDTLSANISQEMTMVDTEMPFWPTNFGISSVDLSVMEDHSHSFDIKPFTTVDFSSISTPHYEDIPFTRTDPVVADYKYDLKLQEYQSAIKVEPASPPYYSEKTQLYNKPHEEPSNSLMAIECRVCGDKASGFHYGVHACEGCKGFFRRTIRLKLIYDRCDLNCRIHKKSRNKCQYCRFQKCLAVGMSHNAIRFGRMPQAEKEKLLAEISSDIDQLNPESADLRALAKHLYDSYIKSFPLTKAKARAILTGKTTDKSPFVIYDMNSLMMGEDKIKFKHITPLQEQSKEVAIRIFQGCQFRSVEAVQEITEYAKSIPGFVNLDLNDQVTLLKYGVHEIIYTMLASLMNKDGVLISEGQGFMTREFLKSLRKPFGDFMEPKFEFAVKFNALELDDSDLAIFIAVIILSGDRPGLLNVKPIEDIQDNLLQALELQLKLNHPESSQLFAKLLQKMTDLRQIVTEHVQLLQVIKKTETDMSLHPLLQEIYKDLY

[6] = molecular target: T1, Peroxisome proliferator-activated receptor delta (Homo sapiens); assay: Agonist activity PPARbeta/delta in human MCF7 cells assessed as induction of ANGPTL4 mRNA expression at 10 uM incubated for 24 hrs by qRT-PCR method; assay type: cell-based
[7] = tested on: HepG2; assay: Upregulation of ANGPTL4 mRNA expression in human HepG2 cells transfected with PPARbeta/delta siRNA at 10 uM after 24 hrs by qRT-PCR method; assay type: functional, cell-based
[8] = molecular target: T1, Peroxisome proliferator-activated receptor delta (Homo sapiens); assay: Agonist activity at full length human N-terminal Myc-tagged PPARbeta/delta expressed in human HepG2 cells coexpressing RXRalpha assessed as transcriptional activation of PPRE incubated for 24 hrs by dual luciferase reporter gene assay; assay type: cell-based
[9] = molecular target: T1, Peroxisome proliferator-activated receptor delta (Homo sapiens); assay: Agonist activity at GAL4-DBD fused human PPARbeta/delta-LBD (136 to 441 residues) expressed in human HepG2 cells after 24 hrs by dual luciferase reporter gene assay; assay type: cell-based
[10] = molecular target: T1, Peroxisome proliferator-activated receptor delta (Homo sapiens); assay: Agonist activity at PPARbeta/delta in human HepG2 cells assessed as induction of ANGPTL4 mRNA expression incubated for 24 hrs by qRT-PCR method; assay type: cell-based

CCCCn1ccc2c3n(c(=O)c(=O)cc1-3)c1ccccc21
Activity [1]: inactive

COc1cccc2c1[nH]c1c(CCn3ccc4c5n(c(=O)c(=O)cc3-5)c3ccccc43)ncc(OC)c12
Activity [1]: inactive

COc1cnc(CCn2ccc3c4n(c(=O)c(=O)cc2-4)c2ccccc32)c2c1c1ccccc1n2OC
Activity [2]: inactive | Activity [3]: Active | Activity [4]: inactive | Activity [5]: Active | Activity [6]: Active | Activity [7]: inactive | Activity [8]: Dose-dependent effect | Activity [9]: Dose-dependent effect | Activity [10]: Dose-dependent effect

Cc1cc(SCc2sc(-c3ccc(C(F)(F)F)c(F)c3)nc2C)ccc1OCC(=O)O
Activity [3]: Active | Activity [7]: inactive
